Data as given in patent US4500533A, “2,4,5-Triaryl pyrimidines and a method of treating pain, fever, thrombosis, inflammation and arthritis” (Eli Lilly and Company, priority 1983, dated 1985).

Columns and labels:
Mouse Writhing = assay: mouse writhing assay (analgesic activity); format: in vivo, Cox standard strain albino male mice; conditions: po, p.o. by gavage in corn oil-acacia emulsion (5%), three hours before i.p. acetic acid (0.60 percent), 10 minute observation starting five minutes after acetic acid, read-out: Mouse Writhing ED50 (dose required to inhibit induced writhing by fifty percent)
From the text: The analgesic activity of a number of compounds provided by this invention has been determined in the standard mouse writhing assay. Writhing, which is characterized by contraction of the abdominal musculature, extension of the hindlegs, and rotation of the trunk, was induced in Cox standard strain albino male mice. The mice, weighing 18-24 grams, were fasted overnight and given the test compound by gavage in a corn oil-acacia emulsion (5%) three hours before writhing was induced by the intraperitoneal administration of acetic acid (0.60 percent). Each treatment group consisted of five mice. The total number of writhes for the treatment group was determined during a 10 minute observation starting five minutes after acetic acid administration. […] Table I which follows presents typical test results obtained with certain of the compounds of this invention. The results in the mouse writhing assay are presented as the effective oral (p.o.) dose in mg./kg. of the tested compound required to inhibit induced writhing in the test animals by fifty percent (ED50).

[1] = test system: adjuvant-induced arthritis; assay: Established adjuvant-induced arthritis test in rats (uninjected hind paw swelling); format: in vivo, male Lewis-Wistar rats; conditions: AUC of mean uninjected paw volumes

COc1ccc(-c2cnc(-c3ccc(Cl)cc3)nc2-c2ccc(OC)cc2)cc1 [Example 1, 2-(4-Chlorophenyl)-4,5-bis(4-methoxyphenyl)pyrimidine]
ED50 (Mouse Writhing): 0.99 mg/kg | % Inhibition of Uninjected Paw Volume Inflammation, Days 14 through 30 ([1]; 25 mg./kg. p.o. × 15, daily days 15-29, corn oil-acacia emulsion): 74%

COc1ccc(-c2cnc(-c3ccc(F)cc3)nc2-c2ccc(OC)cc2)cc1 [Example 2, 2-(4-Fluorophenyl)-4,5-bis(4-methoxyphenyl)pyrimidine]
ED50 (Mouse Writhing): 1.48 mg/kg | % Inhibition of Uninjected Paw Volume Inflammation, Days 14 through 30 ([1]; 10 mg./kg. p.o. × 15, daily days 15-29, corn oil-acacia emulsion): 70%
